In general, Km refers to the concentration of substrate that gives half-maximal velocity.

Series [1] has as its system rat glioma (C6) cells. Put plainly: Phototoxicity after irradiation at 540±5 nm, cell count 24 h later. The class given is cell-based. The note with it: 2 mw/cm^2, up to 2.4 J, compared with Rose Bengal (FIG. 5). The source says: The cells treated with Rose Bengal or with Rose Bengal acetate as described above were submitted to irradiation at 540±5 nm by a Xe 75 W lamp and an interference filter.
Irradiation was realised with a power of 2 mw/cm^2 for various times until the administration of a maximum dose of 2.4 J, in accordance with the protocols normally used in tests of phototoxicity. The irradiation was effected in HBSS buffer (Hank's Balanced Salt Solution, J. H. Hanks and R. E. Wallace, Proc. Natl. Exp. Biol. Med 71, 196, 1949) in the absence of the drug in the culture medium to avoid secondary effects. Twenty-four hours after irradiation the cells adhering to the slide on which they had been grown were counted. The expression of phototoxicity was defined as the ratio between the number of cells present after the treatment and those counted on the untreated controls. […] This effect relates directly to the quantity of fluorescent substance with photosensitisation activity produced by the enzyme activity, evaluated as fluorescence intensity at 580 nm (FIG. 4).

Series [2] relates to POGB cells (bronchial microcytoma). Put plainly: Photosensitizer accumulation in drug-resistant versus sensitive POGB cells. In kind it is cell-based, human. The note with it: Rose Bengal acetate 5×10^-5 to 10^-7 M, Photofrin 10^-5 M, fluorescence intensity. How it is done:
(§1) Tests were also performed on cell lines derived from human tumours: POGB, from bronchial microcytoma, and IGROV, from ovarian carcinoma. In particular, for each line a comparison was made between the cells sensitive and resistant to chemotherapeutic agents. […] Results related to Rose Bengal treatment were compared with those obtained with Photofrin®, a well-establishes photosensitizer.
(§2) The cells were treated with Rose Bengal acetate at doses between 5×10^-5 and 10^-7 M, and with 10^-5 M Photofrin®. The intracellular accumulation of photosensitizer was evaluated in terms of fluorescence intensity. Giving a value of 100 to the photosensitizer amount present in each sensitive cell line, the amount of photosensitizer retained in the corresponding resistant cell line is 100% and 85% for Photofrin and 170% and 120% for Rose Bengal, in IGROV and POGB respectively. A more evident difference of the accumulation capacity between Photofrin and Rose Bengal can be observed in the case of B16 cells, a line derived from mouse melanoma. In this case the amount of Photofrin® accumulated in resistant cells is about 65% of that in sensitive ones, while the amount of Rose Bengal is about 120%.

Series [3] in a line: Rose Bengal in blood samples of treated mice. The class given is in vivo. The note with it: Swiss mice treated with 8 mg/kg. How it is done:
Considering the possible systemic use of Rose Bengal acetate, the effect was evaluated of the serum esterase activity on the hydrolysis kinetics of the fluorogenic substrate. The esterase activity of the blood can induce an extracellular hydrolysis of Rose Bengal acetate. The kinetics, however, of this hydrolysis is slow enough to permit the cellular compartment to accumulate and hydrolyse the Rose Bengal acetate according to the intracellular esterase activity. In any case the hydrolysed Rose Bengal is quickly eliminated from the blood.

Series [4] has as its system normal fibroblast line and sarcoma-derived cell line of Galliera rats. The experiment in a line: Intracellular drug accumulation, normal fibroblasts versus sarcoma-derived cells. In kind it is cell-based, rat. How it is done:
A comparison of intracellular drug accumulation was made between normal and tumour cells. As a model, a normal fibroblast line from embryos (6-10 days) of Galliera strain rats, and a stabilised cell line derived from sarcoma spontaneously growing in syngeneic Galliera rats, were used. After incubation with Rose Bengal acetate at a concentration of 5×10^-6 M for 2 hours, a ratio of intracellular photosensitizer concentration of about 16 was measured between normal and transformed cells, in terms of fluorescence intensity at 580 nm. The ratio of the esterase activity in the two cell lines was found less than the ratio shown by the photosensitizer: this can be explained by the fact that the Rose Bengal produced by the enzyme activity is a polar compound. It must be considered that in this form Rose Bengal requires an active transport mechanism to be released (E. Prosperi, A. C. Croce et al. Cytometry, 7, 70-75, 1986), and that the tumour cells are characterised by an impaired metabolic condition (J. Szollosi, P. Kertai et al. J. Histochem. Cytochem. 29, 503-510, 1982), that enhances the photosensitizer accumulation.
The same cell lines, treated with the most commonly used photosensitizer, Photofrin®, at the concentration of 2×10^-5 M for a time of 2 hours yielded a ratio value of about 8 (FIG. 6).

The subject of series [5] is purified esterase enzyme of pig liver. The experiment in a line: Enzyme hydrolysis by purified pig liver esterase, followed fluorometrically. In kind it is biochemical. The note with it: hydrolysis in solution, phosphate buffer 0.2 M pH 6.85, 20° C., esterase 25 U/ml; read-out: enzyme hydrolysis constant Km. The method, then:
To the solution of Rose Bengal acetate 3×10^-5 M in phosphate buffer 0.2 M (pH 6.85) was added the purified esterase enzyme of pig liver (Sigma Chem, Co., GB) at the final concentration of 25 U/ml. The reaction was performed at room temperature (20° C.) and the formation of the product was measured fluorometrically (excitation 525 nm, emission 565 nm). In a second group of experiments, to the reaction solution was added human albumin (Sigma Chem. Co, GB) at the concentration of 0.1 mg/ml, better to simulate the conditions of hydrophobicity to be met in the cells. In these conditions, the appearance of the fluorescence was accelerated.
The kinetics of hydrolysis was followed by determining the intensity of fluorescence at 565 nm corresponding to the peak of emission of Rose Bengal. Examples of curves of hydrolysis kinetics are shown in FIG. 3 in which the curve (a) represents the intensity of fluorescence in time of a solution of Rose Bengal acetate subjected to hydrolysis in the presence of albumin with esterase, and the curve (b) represent the intensity of fluorescence of the solution of Rose Bengal acetate with albumin, in the absence of esterase, at the concentration of 3×10^-5 M.

Series [6] deals with B16 cells (mouse melanoma). Put plainly: Photosensitizer accumulation in drug-resistant versus sensitive B16 cells. The class given is cell-based. The method, then:
as §2

Series [7] has as its system rat glioma (C6) cells. The experiment in a line: Cellular vitality tests (trypan blue and fluorescein diacetate methods). In kind it is cell-based. The note with it: incubation for 4 h at concentrations up to 1×10^-4 M, no irradiation. The source says:
The hydrophobicity of the intracellular environment would therefore seem to create the structural condition that favours the action of the enzyme. […] The finding relative to Rose Bengal agrees with the literature (R. P. G. Feenstra and S. C. G. Tseng, Ophthalmology, 99 605, 1992).

In series [8] the test system is rat glioma (C6) cells. Put plainly: Intracellular accumulation and hydrolysis kinetics in C6 cell cultures. In kind it is cell-based. The method, then: Evaluations of the kinetics of intracellular accumulation of Rose Bengal acetate were performed on cultures of an established cell line of rat glioma (C6) which grows as a monolayer. This cell line is widely used for pharmaco-kinetic studies of fluorescent substances with photosensitisation activity by virtue of its rapid proliferation activity and the possibility of modifying the physiological activities of the cells.
It is particularly important that, principally in short-term treatments, a continuous increase of intracellular Rose Bengal is recorded in the cells treated with the acetylated species, even when the cells are transferred into a medium devoid of this substance. This can easily be interpreted in terms of the balance between the processes of incorporation and hydrolysis. Since the process of incorporation is rapider than that of hydrolysis, inside the cells an accumulation is created of hydrolysable substance on which the enzyme can continue to effect its action through time.
Further, it is interesting to note that the kinetics of hydrolysis of Rose Bengal acetate is accelerated by the cellular environment: the Km passes from about 10^-3 M in conditions of hydrolysis in solution to about 10^-6 M in the cells.

Series [9] relates to lymphocytes and granulocytes. The experiment in a line: Hydrolysis activity in white blood cells on smears. In kind it is cell-based.
Series [10] has as its system IGROV cells (ovarian carcinoma). The experiment in a line: Photosensitizer accumulation in drug-resistant versus sensitive IGROV cells. The class given is cell-based, human. The note with it: Rose Bengal acetate 5×10^-5 to 10^-7 M, Photofrin 10^-5 M, fluorescence intensity. The method, then: as §1, §2

Regarding `CC(=O)Oc1c(I)cc2c(-c3c(Cl)c(Cl)c(Cl)c(Cl)c3C(=O)O)c3cc(I)c(=O)c(I)c-3oc2c1I` [Rose Bengal acetate], in [1], the “phototoxicity (cell survival)” value is listed as “strong phototoxic effect”. The “amount of photosensitizer retained in resistant cell line (sensitive line = 100)” value in series [2] came out at 120%; in series [10], 170%. The “Rose Bengal in the blood” value in series [3] was “do not present appreciable quantities”. In series [4] (2 h, 5 µM), the “ratio of intracellular photosensitizer concentration between normal and transformed cells” value is on record as “about 16”. In addition, the Km is approximately 1000 µM in series [5] and approximately 1 µM in series [8]. Moreover, the “amount accumulated in resistant cells relative to sensitive ones” value in series [6] is reported as “about 120%”. Further, in series [7], the cell mortality entry is listed as “no significant cell mortality”. In addition, in series [9], the “hydrolysis activity in lymphocytes, less than in granulocytes” value is recorded as 40%.
In the case of `O=C(O)c1c(Cl)c(Cl)c(Cl)c(Cl)c1-c1c2cc(I)c(=O)c(I)c-2oc2c(I)c(O)c(I)cc12` [Rose Bengal, reference compound], in series [7], the cell mortality result was “no significant cell mortality”.
Take `CC(=O)Oc1ccc2c(c1)Oc1cc(OC(C)=O)ccc1C21OC(=O)c2ccccc21` [diacetate fluorescein, reference compound]: in [5], the Km amounted to 5 µM.
For Photofrin® [reference compound], the “amount of photosensitizer retained in resistant cell line (sensitive line = 100)” value in [2] is 85%; in series [10], 100%. In addition, the “ratio of intracellular photosensitizer concentration between normal and transformed cells” value in [4] (2×10^-5 M for 2 hours) was “about 8”. For the same compound, the “amount accumulated in resistant cells relative to sensitive ones” value in series [6] was “about 65%”.
